“Also recorded” adds a separate entry of the source.
How the values were obtained:
trabecular cells = assay: Ex vivo trabecular cell apoptosis (TUNEL labelling); format: in vivo, rat; conditions: BAK-injected eyes vs controls, end of experiments; P<0.01
Description: At the end of the experiments, animals were euthanized and the eyes were immediately conditioned for TUNEL labelling. Eyes were fixed in 4% paraformaldehyde, embedded in an optimal cutting-temperature compound (OCT, Tissue-Tek, Miles Inc, Bayer Diagnostic, Puteaux, France) and cut into 15-μm cryosections. A terminal deoxynucleotidyl transferase-mediated dUTP nick-end labelling (TUNEL) assay (Roche Diagnostics, Meylan, France) was performed to detect apoptosis in rat ocular tissues following the manufacturer's instructions. Specimens were mounted in aqueous mounting medium with DAPI to be further analyzed using light epifluorescence microscopy.

ocular surface = assay: In vivo assessment of BAK injection toxicity to the ocular surface (in vivo confocal microscopy, IVCM)
Description: In vivo confocal microscopy (IVCM) using the Heidelberg Retina Tomograph II/Rostock Cornea Module (Heidelberg Engineering GmbH, Heidelberg, Germany) laser-scanning was carried out to assess putative damage to the ocular surface. Images size was 400 per 400 hundred pixels with a lateral resolution of 1 micrometer and an axial resolution of 2 micrometers. […] IVCM scores were used to evaluate ocular surface toxicity profiles in the 4 groups (vehicle, 0.01% BAK, 0.05% BAK, and 0.1% BAK) in different histological regions (superficial epithelium, basal epithelium, anterior stroma, limb and conjunctival stroma), 30 days after the first BAK administration (see Table 1). […] [table]

Long-Evans rats [1] = assay: Intra-ocular pressure monitoring after two subconjunctival injections of 0.1% BAK; format: in vivo, rat
Description: Six male 8-week-old Long-Evans rats weighing 300-350 g were used. At D0, first subconjunctival injection of 0.1% BAK (100 μL) was performed in the right eye whereas the left eye received 0.9% NaCl vehicle only as control. A second injection was performed seven days after following the same protocol. Animals were daily monitored for intra-ocular pressure using a handheld tonometer, without sedation.
Six male 8-week-old Long-Evans rats weighing 300-350 g were used. Animals were kept in pathogen-free conditions with food and water available ad libitum and housed in a 12-h light/12-h dark cycle. Ocular integrity was checked using the slit lamp biomicroscope. At D0, first subconjunctival injection of 0.1% BAK (100 μL) was performed in the right eye whereas the left eye received PBS only as control. A second injection was performed seven days after following the same protocol. Animals were daily monitored for intra-ocular pressure using a handheld tonometer (TonoLab, Medtronics, Jacksonville, Fla., USA) without sedation. All experiments were conducted in accordance with the Association for Research in Vision and Ophthalmology for the Use of Animals in Ophthalmic research.

Long-Evans rats [2] = assay: In vivo outflow facility measurement; design: species or system rat; conditions: six days after second injection of 0.1% BAK; infusion 0.1, 0.2, 0.3 μL/min; vs vehicle-injected control eyes
Description: Six days after the second injection of BAK, trabecular outflow facility was measured in vivo under general anaesthesia. The eyes were anteriorly canulated with a 30-G needle connected by tubing to a 1 mL syringe filled with PBS and loaded into a microdialysis infusion pump. Intraocular pressure was measured after a 10-min stabilization period for three different infusion flow rates (0.1, 0.2, and 0.3 μL/min). Aqueous humor outflow facility was calculated as the reciprocal of the slope of the respective ocular pressure/flow rate curves. Outflow facility (OF) was decreased in BAK-injected eyes as compared to vehicle-injected control eyes.
Six days after the second injection of BAK, trabecular outflow facility was measured in vivo under general anaesthesia (intraperitoneal injection of ketamine 75 mg/kg and xylazine 10 mg/kg). Briefly, the eyes were anteriorly canulated with a 30-G needle connected by tubing to a 1 mL syringe filled with PBS and loaded into a microdialysis infusion pump (World Precision instruments). Intraocular pressure was measured after a 10-min stabilization period for three different infusion flow rates (0.1, 0.2, and 0.3 μL/min). Aqueous humor outflow facility (μL/min/mmHg) was calculated as the reciprocal of the slope of the respective ocular pressure/flow rate curves.

[3] = Dose-dependent effects of subconjunctival injections of BAK on intraocular pressure; format: in vivo; conditions: 3 subconjunctival injections (0.15 mL, each 48 h)
Description: A series of 3 subconjunctival injections with 0.01% BAK (n=3), 0.05% BAK (n=3), 0.1%, BAK (n=6) or the vehicle (n=4) was performed (0.15 mL, each 48 h during 6 days) in the right eye of animals. Intraocular pressure was measured using a handled tonometer every two days from D0 to D28. Intraocular pressure is expressed as the difference between the treated eye (right) and the left control eye.

Substance: benzalkonium chloride [BAK]
- trabecular apoptotic cells (TUNEL labelling) (trabecular cells): Significant difference; also recorded: increased
- IVCM subscore: limbus and conjunctiva, animals with peripheral vasodilatation (ocular surface; 0.01% BAK (n=3)): one
- IVCM subscore: limbus and conjunctiva, animals with peripheral vasodilatation (ocular surface; 0.1% BAK (n=6)): three
- IVCM subscore: basal epithelium (ocular surface; 4 groups (vehicle, 0.01%, 0.05%, 0.1% BAK)): unchanged
- IVCM subscore: anterior stroma (ocular surface; BAK 0.1% group): trend for hyperplasia of the subbasal nerve plexi
- IVCM: posterior stroma and endothelium toxicity (ocular surface; all BAK concentrations): no toxicity was found
- IVCM subscore: superficial epithelium (ocular surface; all the animals): slight epithelial swelling
- overall IVCM score (ocular surface toxicity) (ocular surface; vehicle, 0.01%, 0.05% and 0.1% BAK groups, 30 days after first BAK administration, Kruskal Wallis test, p>0.05): No significant difference; also recorded: No statistical difference
- anterior eye abnormality / ocular surface pathological changes (ocular surface; whatever the BAK concentration): Neither anterior eye abnormality nor ocular surface pathological changes were found
- intra-ocular pressure after second injection (Long-Evans rats [1]; 0.1% BAK (100 μL) subconjunctival at D0 and seven days after, vs control eyes, D9 and D14, P<0.01): significantly rose and remained significantly elevated; also recorded: Significant difference; also recorded: became significant
- intra-ocular pressure after first injection (Long-Evans rats [1]; 0.1% BAK (100 μL) subconjunctival, right eye, vs vehicle control eye, D7): no effect; also recorded: slight increase
- trabecular (aqueous humor) outflow facility (Long-Evans rats [2]): decreased; also recorded: low trabecular outflow facility
- intraocular pressure, difference between treated eye and left control eye ([3]; 0.05% BAK, D9): significant ocular hypertension
- intraocular pressure, difference between treated eye and left control eye ([3]; 0.1% BAK, D7, D11 and D14): significant increase
- intraocular pressure, difference between treated eye and left control eye ([3]; other times or BAK concentrations (0.01% BAK), D0 to D28): did not show significant changes

Source: patent US20160346406A1, “METHOD FOR INCREASING THE INTRAOCULAR PRESSURE IN AN ANIMAL” (INSTITUT NATIONAL DE LA SANTE ET DE LA RECHERCHE MEDICALE …, priority 2011, published 2016)
